A word on the IC50: it is the concentration that inhibits the measured activity by half.

Like-named read-outs stand apart in the source and are kept apart here.

For assay [1], the system named is ZIKV (FSS13025, PRVABC59, MR766) in SNB-19 cells. Kind of assay: Anti-ZIKV activity in SNB-19 cells (NS1 Western blot, NS1 ELISA, immunofluorescence). It is filed as cell-based, Zika virus. The following applies: for anti-ZIKV activity in SNB-19 cells: compound added 1 hour prior to infection; for time-of-addition effect on ZIKV infection / IC50: SNB-19 cells; for time-of-addition effect on ZIKV infection: PRVABC59, added 1 hour before or 4 hours after inoculation; for IC50: all three strains of ZIKV, read-out: IC50 of inhibition of ZIKV (NS1 read-out). As for the experimental part: FIGS. 2A-1, 2A-2, 2B-1, 2B-2, 2C-1, 2C-2, 2D-1, 2D-2, 2D-3, 2E-1, 2E-2, and 2F. […] Screening of select compounds for antiviral activity against ZIKV infection was carried out. Glioblastoma SNB-19 cells were treated with indicated compound at 10×AC50 (determined in the primary caspase screen) for 1 hour prior to inoculation with FSS-13025 (at MOI=1). Cells were harvested 24 hours post infection and analyzed by Western blot for ZIKV-NS1 or GAPDH (FIGS. 2A-1 and 2A-2). […] Three strains of virus (FSS-13025, PRVABC59, and MR766; MOI=1) were tested. Shown are sample western blot images (FIG. 2B-1) and ImageJ quantification (FIG. 2B-2). Values represent mean±s.d. (n=3; ***P<0.001; One-way ANOVA). Titration of Emricasan on SNB-19 cells for anti-ZIKV activity was conducted similarly (FIGS. 2C-1 and 2C-2). Values represent mean±s.d. […] Sample western blot (FIG. 2D-2) and ImageJ quantification (FIG. 2D-3) are shown for infection with the PRVABC59 strain (MOI=1). Results for additional strains are shown in FIGS. 6A-F. Values represent mean±s.d. (n=2; **P<0.01; ***P<0.001; One-way ANOVA). […] The concentration of NS1 in the medium of infected SNB-19 cells collected 24 hours post-infection was quantified by a ZIKV-NS1 ELISA kit (FIGS. 2E-1 and 2E-2). Values represent mean±s.d. (n=3; ***P<0.001; One-way ANOVA). […] SNB-19 cells were treated with each indicated compound at increasing concentrations for 1 hour before infection with PRVABC59 at a MOI=0.5 (n=3 cultures). Cell culture supernatant was collected 24 hours after infection, and infectious virions were quantified for focus-forming units (FFU) using Vero cells. Data represent mean±s.d.
FIGS. 3A, 3B, 3C-1, 3C-2, 3C-3, 3C-4, 3C-5, 3D-1, 3D-2, and 3E. […] SNB-19 cells were treated with the indicated compound at 92 μM for one hour prior to infection with FSS13025 or PRVABC59 (MOI=1). Cells were harvested 24 hours post infection and analyzed by western blot for ZIKV-NS1 or GAPDH. Shown are sample images and quantification (FIGS. 3D-1 and 3D-2). Values represent mean±s.d. (n=2; ***P<0.01; One-way ANOVA). Data were normalized to those obtained for DMSO-treated cells. Values represent mean±s.d. *P<0.05; **P<0.01; ***P<0.001; by one-way ANOVA, as compared to DMSO-treated cells.
FIGS. 18A, 18B, 18C-1, 18C-2, 18D, 18E, 18F, 18G-1, and 18G-2. […] 24 hours post infection, supernatants from SNB-19 cells were titrated onto naïve vero cells plated in a monolayer in 96-well plates for infectious focus-forming unit assay as previously described and focus forming units quantified. […] Immunofluorescence (IF) staining (FIG. 18C-1) and quantification (FIG. 18C-2) of ZIKV positive SNB-19 cells following infection with one of three ZIKV strains and treatment with emetine at 0.01, 0.1, or 1 μM. […] Drug was added at 1 μM either 1-hour prior to infection with PRVABC59-ZIKV, or 4-hours post infection with PRVABC59-ZIKV. […] Drug was added at 1 μM either 1-hour prior to infection with PRVABC59-ZIKV, or 4-hours post infection with PRVABC59-ZIKV.
Cells were harvested by trypsinization, pelleting, and subsequent lysis in 1× Laemlli buffer and boiled, or directly lysed in 1× Laemlli buffer and boiled. Antibodies used were anti-ZIKV NS1 (1:2000; BF-1225-36, BioFront Technologies, Tallahassee, Fla.) or GAPDH (Santa Cruz Biotechnology, Texas).
For orientation: In western blotting, separated proteins are transferred to a membrane and probed.

Assay [2] deals with ZIKV-induced caspase 3/7 activity in human astrocytes. Kind of assay: Caspase 3/7 activity assay, ZIKV-infected human astrocytes. Type of assay: cell-based. The following applies: ZIKV-infected human astrocytes; for IC50: read-out: Caspase 3 (IC50, uM) Astrocyte; for Emax: read-out: Caspase 3 (efficacy, %) Astrocyte. The method in brief: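 Human NPCs, SNB-19 cells or astrocytes seeded 16 h, compound added 30 min before ZIKV, then 6 h infection at 37 °C. Caspase-Glo 3/7 luminescence after 30 min at room temperature, normalized to uninfected cells (0%) and ZIKV-infected cells (100%).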

Consider `C[C@H](NC(=O)C(=O)Nc1ccccc1C(C)(C)C)C(=O)N[C@@H](CC(=O)O)C(=O)COc1c(F)c(F)cc(F)c1F` [Emricasan], for which, in assay [1], the “anti-ZIKV activity in SNB-19 cells” value is on record as “no significant differences were found”. In addition, in assay [2] (Astrocyte), the 50% inhibitory concentration (IC50) is 0.46 µM and the Emax was determined as 77.1%.
As for `O=C(Nc1ccc([N+](=O)[O-])cc1Cl)c1cc(Cl)ccc1O` [Niclosamide], in assay [1], the “time-of-addition effect on ZIKV infection” value (shortened to “time-of-addition effect”) is “effectively inhibited ZIKV infection when added either 1 hour before or 4 hours after virus inoculation” and the “anti-ZIKV activity in SNB-19 cells” value is recorded as “significantly inhibited ZIKV infection in SNB-19 cells”. In assay [1] (Zika virus), the IC50 was in the range of 0.5 to 2 µM. In assay [2] (Astrocyte), the 50% inhibitory concentration (IC50) was found to be 1.84 µM and the Emax amounted to 96.8%.
Turning to `CC(=O)Nc1ccc([C@H](C)C(=O)Nc2ncc(C(C)C)s2)cc1` [PHA-690509], in assay [1], the “time-of-addition effect” value is given as “effectively inhibited ZIKV infection when added either 1 hour before or 4 hours after virus inoculation”, the IC50 was 12 to 36 µM and the “anti-ZIKV activity in SNB-19 cells” value is given as “significantly inhibited ZIKV infection in SNB-19 cells”. In assay [2], the “Caspase 3 (efficacy, %) Astrocyte” value worked out at 71.6% and the IC50 turned out to be 13 µM.
Turning to `C/C1=C2/[N-][C@H]([C@H](CC(N)=O)[C@@]2(C)CCC(=O)NC[C@@H](C)OP(=O)([O-])O[C@H]2[C@@H](O)[C@@H](n3cnc4cc(C)c(C)cc43)O[C@@H]2CO)[C@]2(C)N=C(/C(C)=C3N=C(/C=C4N=C1[C@@H](CCC(N)=O)C\4(C)C)[C@@H](CCC(N)=O)[C@]\3(C)CC(N)=O)[C@@H](CCC(N)=O)[C@]2(C)CC(N)=O.[Co+3].[OH-]` [Hydroxocobalamin], in assay [2], the “Caspase 3 (efficacy, %) Astrocyte” value was 83.4% and the IC50 came to 0.97 µM.
In the case of `CC[C@H]1CN2CCc3cc(OC)c(OC)cc3[C@@H]2C[C@@H]1C[C@H]1NCCc2cc(OC)c(OC)cc21` [Emetine], in assay [1], the “time-of-addition effect” value is reported as “effective against ZIKV infection when added both before or after infection” and the “anti-ZIKV activity in SNB-19 cells” value is recorded as “reduces ZIKV infection in a dosage dependent manner”.
Consider `O=C1c2ccccc2C(=O)c2c1ccc(O)c2O` [Alizarin], for which, in assay [2] (Astrocyte), the IC50 came to 30.8 µM and the Emax was 47.9%.
On the same counts, the results for `CN1CCN(c2cc3c(nn2)Oc2ccccc2N3C)CC1` [Pipofezine] are 11.3 µM and 56.3%.
On the same counts, the results for `O=C(O)c1cc([N+](=O)[O-])ccc1NCCCc1ccccc1` [5-Nitro-2-(3-phenylpropylamino)benzoic acid] are 9.75 µM and 82.1%.
As to `CN1CC(=O)NC1=NC(=O)Nc1cccc(Cl)c1` [Fenobam], in assay [2], the “Caspase 3 (efficacy, %) Astrocyte” value is reported as 97.2% and the IC50 was found to be 9.2 µM.
Turning to `O=C1NC(=O)/C(=C/c2ccc(-c3ccc(F)cc3O)o2)S1` [AS-252424], in assay [2], the “Caspase 3 (efficacy, %) Astrocyte” value was determined as 37.5% and the IC50 worked out at 1.73 µM.

For the origin of these results see patent publication US10940188B2, “Compounds and methods for treatment and prevention of Flavivirus infection” (priority 2016, dated 2021).
